Measurements as given in patent US11247965B2 (VenatoRx Pharmaceuticals, Inc., priority 2017, dated 2022).
pEC50: −log10 of the molar value.

Legend:
[1] = tested on: HBV replication in HepAD38 cells; assay: Anti-HBV activity in HepAD38 cells, extracellular HBV DNA by QPCR; assay type: cell-based, HBV (genotype D, serotype ayw); conditions: Hepatitis B virus, HePAD38, 168 h, read-out: Anti-HBV EC50, HepAD38 cells, extracellular HBV DNA by QPCR, 7 days of incubation
Summary of the method: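 HepAD38 cells (HepG2 with tet-repressible HBV genotype D genome) seeded overnight, tetracycline removed, then treated 7 days with compounds (half-log dilutions, 30 μM–10 nM; 1:200 from DMSO). Supernatant HBV DNA quantified by QPCR against standard curve; % inhibition vs vehicle, EC50 by 4-parameter fit.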

[2] = In vitro cytotoxicity, MTT cell viability assay in HepG2 cells; assay type: cell-based; conditions: human, Cytotoxicity CC50
Summary of the method: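 Parental HepG2 cells in EMEM + 10% FBS were exposed to compounds (8 half-log dilutions, 30 μM to 1.0 nM) for 7 days at 37 °C, 5% CO2. MTT was then added for 3-4 h, formazan dissolved in DMSO and absorbance read at 492 nm; CC50 came from 4-parameter fits against vehicle controls.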

Row | SMILES | pEC50 [1] | CC50 at 7 days [2] [µM]
1 | O=C(Nc1ccc(F)c(Cl)c1)c1ccc(F)c(C(F)(F)C(=O)N2[C@@H]3CC[C@H]2C[C@@H](O)C3)c1 [Example 170, N-(3-chloro-4-fluorophenyl)-3-(1,1-difluoro-2-((1R,3r,5S)-3-hydroxy-8-azabicyclo[3.2.1]octan-8-yl)-2-oxoethyl)-4-fluorobenzamide] | > 5.30 | 5 to 30
2 | O=C(Nc1ccc(F)c(F)c1)c1ccc(F)c(C(F)(F)C(=O)N2CC[C@H](CO)C2)c1 [Example 13, (S)-3-(1,1-difluoro-2-(3-(hydroxymethyl)pyrrolidin-1-yl)-2-oxoethyl)-N-(3,4-difluorophenyl)-4-fluorobenzamide] | 4.52 to 5.30 | 5 to 30
3 | Cc1cc(NC(=O)c2ccc(Cl)c(C(F)(F)C(=O)N3CCC(B(O)O)CC3)c2)ccc1F [Example 148, (1-(2-(2-chloro-5-((4-fluoro-3-methylphenyl)carbamoyl)phenyl)-2,2-difluoroacetyl)piperidin-4-yl)boronic acid] | > 5.30 | > 30
4 | Cc1cc(NC(=O)c2ccc(F)c(C(F)(F)C(=O)N3CC=C(B(O)O)CC3)c2)ccc1F [Example 154, (1-(2,2-difluoro-2-(2-fluoro-5-((4-fluoro-3-methylphenyl)carbamoyl)phenyl)acetyl)-1,2,3,6-tetrahydropyridin-4-yl)boronic acid] | > 5.30 | 5 to 30
5 | Cc1cc(NC(=O)c2ccc(Cl)c(C(F)(F)C(=O)NC(C)C)c2)ccc1F [Example 23, 4-chloro-3-(1,1-difluoro-2-(isopropylamino)-2-oxoethyl)-N-(4-fluoro-3-methylphenyl)benzamide] | 4.52 to 5.30 | 5 to 30
6 | Cc1ccc(C(=O)Nc2ccc(F)c(Cl)c2)cc1C(F)(F)C(=O)N1[C@@H]2CC[C@H]1C[C@H](O)C2 [Example 206, N-(3-chloro-4-fluorophenyl)-3-(1,1-difluoro-2-((1R,3s,5S)-3-hydroxy-8-azabicyclo[3.2.1]octan-8-yl)-2-oxoethyl)-4-methylbenzamide] | > 5.30 | 5 to 30
7 | Cc1cc(NC(=O)c2ccc(Cl)c(C(F)(F)C(=O)N3CC[C@@H](O)[C@H](O)C3)c2)ccc1F (racemic) [Example 56, (±)-4-chloro-3-(2-(3,4-dihydroxypiperidin-1-yl)-1,1-difluoro-2-oxoethyl)-N-(4-fluoro-3-methylphenyl)benzamide] | > 5.30 | > 30
8 | Cc1cc(NC(=O)c2ccc(F)c(C(F)(F)C(=O)N3C4CC[C@@H]3C[C@H](NS(C)(=O)=O)C4)c2)ccc1F [Example 262, 3-(1,1-difluoro-2-((1R,3r,5S)-3-(methylsulfonamido)-8-azabicyclo[3.2.1]octan-8-yl)-2-oxoethyl)-4-fluoro-N-(4-fluoro-3-methylphenyl)benzamide] | > 5.30 | 5 to 30
9 | N#Cc1cc(NC(=O)c2ccc(F)c(C(F)(F)C(=O)N3CCC(O)(CO)CC3)c2)ccc1F [Example 194, N-(3-cyano-4-fluorophenyl)-3-(1,1-difluoro-2-(4-hydroxy-4-(hydroxymethyl)piperidin-1-yl)-2-oxoethyl)-4-fluorobenzamide] | > 5.30 | 5 to 30
10 | Cc1cc(NC(=O)c2ccc(F)c(C(F)(F)C(=O)N3CCc4nc(N)sc4CC3)c2)ccc1F [Example 340, 3-(2-(2-amino-4,5,7,8-tetrahydro-6H-thiazolo[4,5-d]azepin-6-yl)-1,1-difluoro-2-oxoethyl)-4-fluoro-N-(4-fluoro-3-methylphenyl)benzamide] | > 5.30 | 5 to 30
11 | Cc1cc(NC(=O)c2ccc(F)c(C(F)(F)C(=O)NC34CCC(NC(=O)OC(C)(C)C)(CC3)C4)c2)ccc1F [Example 252, tert-butyl (4-(2,2-difluoro-2-(2-fluoro-5-((4-fluoro-3-methylphenyl)carbamoyl)phenyl)acetamido)bicyclo[2.2.1]heptan-1-yl)carbamate] | 4.52 to 5.30 | < 5
12 | COCC(C)(C)NC(=O)C(F)(F)c1cc(C(=O)Nc2ccc(F)c(C)c2)cn1C [Example 132, 5-(1,1-difluoro-2-((1-methoxy-2-methylpropan-2-yl)amino)-2-oxoethyl)-N-(4-fluoro-3-methylphenyl)-1-methyl-1H-pyrrole-3-carboxamide] | > 5.30 | > 30
13 | Cc1cc(NC(=O)c2ccc(F)c(C(F)(F)C(=O)N3CCC(NS(C)(=O)=O)C(C)(C)C3)c2)ccc1F (stereo not drawn) [Example 286, 3-(2-(3,3-dimethyl-4-(methylsulfonamido)piperidin-1-yl)-1,1-difluoro-2-oxoethyl)-4-fluoro-N-(4-fluoro-3-methylphenyl)benzamide] | > 5.30 | 5 to 30
14 | O=C(Nc1ccc(F)c(F)c1)c1ccc(Cl)c(C(F)(F)C(=O)N2CCC(O)CC2)c1 [Example 42, 4-chloro-3-(1,1-difluoro-2-(4-hydroxypiperidin-1-yl)-2-oxoethyl)-N-(3,4-difluorophenyl)benzamide] | > 5.30 | 5 to 30
15 | Cc1cc(NC(=O)c2cc(Br)c(C(F)(F)C(=O)NC(C)(C)C)s2)ccc1F [Example 158, 4-bromo-5-(2-(tert-butylamino)-1,1-difluoro-2-oxoethyl)-N-(4-fluoro-3-methylphenyl)thiophene-2-carboxamide] | 4.52 to 5.30 | 5 to 30
16 | O=C(Nc1ccc(F)c(Br)c1)c1ccc(F)c(C(F)(F)C(=O)N2[C@@H]3CC[C@H]2C[C@@H](O)C3)c1 [Example 176, N-(3-bromo-4-fluorophenyl)-3-(1,1-difluoro-2-((1R,3r,5S)-3-hydroxy-8-azabicyclo[3.2.1]octan-8-yl)-2-oxoethyl)-4-fluorobenzamide] | > 5.30 | 5 to 30
17 | Cc1ccc(C(=O)Nc2cc(F)c(F)c(F)c2)cc1C(F)(F)C(=O)N1[C@@H]2CC[C@H]1C[C@H](O)C2 [Example 205, 3-(1,1-difluoro-2-((1R,3s,5S)-3-hydroxy-8-azabicyclo[3.2.1]octan-8-yl)-2-oxoethyl)-4-methyl-N-(3,4,5-trifluorophenyl)benzamide] | 4.52 to 5.30 | 5 to 30
18 | Cc1cc(NC(=O)c2ccc(F)c(C(F)(F)C(=O)NC3CCC(C(=O)O)CC3)c2)ccc1F (stereo not drawn) [Example 235, (1r,4r)-4-(2,2-difluoro-2-(2-fluoro-5-((4-fluoro-3-methylphenyl)carbamoyl)phenyl)acetamido)cyclohexane-1-carboxylic acid] | 4.52 to 5.30 | > 30
19 | CC(C)n1cc(NC(=O)c2ccc(F)c(C(F)(F)C(=O)N3[C@@H]4CC[C@H]3C[C@H](O)C4)c2)cn1 [Example 185, 3-(1,1-difluoro-2-((1R,3s,5S)-3-hydroxy-8-azabicyclo[3.2.1]octan-8-yl)-2-oxoethyl)-4-fluoro-N-(1-isopropyl-1H-pyrazol-4-yl)benzamide] | 4.52 to 5.30 | > 30
20 | CCn1ccc(C(=O)Nc2ccc(F)c(C)c2)c1C(F)(F)C(=O)NC(C)(C)C [Example 135, 2-(2-(tert-butylamino)-1,1-difluoro-2-oxoethyl)-1-ethyl-N-(4-fluoro-3-methylphenyl)-1H-pyrrole-3-carboxamide] | 4.52 to 5.30 | > 30
21 | O=C(Nc1ccc(F)c(Cl)c1)c1ccc(Cl)c(C(F)(F)C(=O)N2CCC(O)CC2)c1 [Example 35, 4-chloro-N-(3-chloro-4-fluorophenyl)-3-(1,1-difluoro-2-(4-hydroxypiperidin-1-yl)-2-oxoethyl)benzamide] | > 5.30 | 5 to 30
22 | CNCC(=O)NC1CCN(C(=O)C(F)(F)c2nc(C(=O)Nc3ccc(F)c(C)c3)ccc2F)CC1(C)C (stereo not drawn) [Example 302, 6-(2-(3,3-dimethyl-4-(2-(methylamino)acetamido)piperidin-1-yl)-1,1-difluoro-2-oxoethyl)-5-fluoro-N-(4-fluoro-3-methylphenyl)picolinamide] | > 5.30 | 5 to 30
23 | O=C(Nc1ccc(F)c(Cl)c1)c1ccc(F)c(C(F)(F)C(=O)N2CCC(O)(CO)CC2)c1 [Example 172, N-(3-chloro-4-fluorophenyl)-3-(1,1-difluoro-2-(4-hydroxy-4-(hydroxymethyl)piperidin-1-yl)-2-oxoethyl)-4-fluorobenzamide] | > 5.30 | 5 to 30
24 | O=C(Nc1ccc(F)c(F)c1)c1ccc(F)c(C(F)(F)C(=O)N2[C@@H]3CC[C@H]2C[C@H](O)C3)c1 [Example 199, 3-(1,1-difluoro-2-((1R,3s,5S)-3-hydroxy-8-azabicyclo[3.2.1]octan-8-yl)-2-oxoethyl)-N-(3,4-difluorophenyl)-4-fluorobenzamide] | > 5.30 | 5 to 30
25 | Cn1cc(NC(=O)c2ccc(F)c(C(F)(F)C(=O)N3CCC(O)(CO)CC3)c2)cn1 [Example 182, 3-(1,1-difluoro-2-(4-hydroxy-4-(hydroxymethyl)piperidin-1-yl)-2-oxoethyl)-4-fluoro-N-(1-methyl-1H-pyrazol-4-yl)benzamide] | 4.52 to 5.30 | > 30
26 | Cc1cc(NC(=O)c2ccc(F)c(C(F)(F)C(=O)N3CCC(NC(=O)CC4CCOCC4)CC3)c2)ccc1F [Example 232, 3-(1,1-difluoro-2-oxo-2-(4-(2-(tetrahydro-2H-pyran-4-yl)acetamido)piperidin-1-yl)ethyl)-4-fluoro-N-(4-fluoro-3-methylphenyl)benzamide] | > 5.30 | 5 to 30
27 | Cc1cc(NC(=O)c2ccc(F)c(C(F)(F)C(=O)N3CCC(NC(=O)C4CCNC(=O)C4)CC3)c2)ccc1F (stereo not drawn) [Example 233, N-(1-(2,2-difluoro-2-(2-fluoro-5-((4-fluoro-3-methylphenyl)carbamoyl)phenyl)acetyl)piperidin-4-yl)-2-oxopiperidine-4-carboxamide] | > 5.30 | 5 to 30
